Laboratory results: patent US20230116703A1, “NOVEL ERGOLINES AND METHODS OF TREATING MOOD DISORDERS” (priority 2021, published 2023)
Like-named read-outs stand apart in the source and are kept apart here.

Tests used:
5-HT2A receptor [1] = target: T1, 5-HT2A receptor (Homo sapiens, UniProt P28223); assay: biochemical; type: binding
T1 construct: host or cells: HEK293
Protocol: Affinity of the test compounds for the 5-HT2A receptor was determined in radioligand binding experiments with [^3H]ketanserin by WuXi AppTec (Hong Kong) Limited, using methods adapted from the literature and under conditions described in Table 1.

5-HT2A receptor [2] = target: T1, 5-HT2A receptor; assay: cell-based; type: cell-based
Protocol: (§1) Functional Assays at 5-HT2A, 5-HT2B, and 5-HT1A. Agonist activity at 5-HT2A, 5-HT2B, and 5-HT1A receptors was determined using a FLIPR Ca^2+ flux assay at WuXi AppTec (Hong Kong) Limited according to their standard protocols. Briefly, stably transfected cells expressing the receptor of interest (HEK293 for 5-HT2A and 5-HT2B; CHO cells for 5-HT1A) were grown and plated in a 384 well plate and incubated at 37° C. and 5% CO2 overnight. A solution of 250 mM probenecid in 1 mL FLIPR assay buffer was prepared fresh. This was combined with a fluorescent dye (Fluo-4 Direct™) to make a final assay concentration of 2.5 mM. […] The fluorescent dye was then added to the assay plate along with assay buffer to a final volume of 40 μL. The cell plate was incubated for 50 min at 37° C. and 5% CO2 and placed into the FLIPR Tetra along with the compound plate. 10 μL of references and compounds were then transferred from the compound plate into the cell plate and the fluorescent signal was read.

5-HT1A receptor = target: T2, 5-HT1A receptor (Homo sapiens, UniProt P08908); assay: cell-based
T2 construct: host or cells: CHO cells
T2 sequence (P08908 1-422): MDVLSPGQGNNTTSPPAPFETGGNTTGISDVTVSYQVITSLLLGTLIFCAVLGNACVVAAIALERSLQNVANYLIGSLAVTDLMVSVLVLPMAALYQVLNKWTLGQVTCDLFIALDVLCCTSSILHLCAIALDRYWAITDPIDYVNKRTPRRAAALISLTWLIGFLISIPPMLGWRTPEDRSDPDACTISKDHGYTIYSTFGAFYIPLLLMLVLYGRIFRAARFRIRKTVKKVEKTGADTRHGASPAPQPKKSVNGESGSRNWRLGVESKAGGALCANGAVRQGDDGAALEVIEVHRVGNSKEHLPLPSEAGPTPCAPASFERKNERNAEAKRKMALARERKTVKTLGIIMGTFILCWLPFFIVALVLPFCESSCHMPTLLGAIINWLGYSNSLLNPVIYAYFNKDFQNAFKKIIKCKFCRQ
Protocol: as §1

5-HT2B receptor = target: T3, 5-HT2B receptor (Homo sapiens, UniProt P41595); assay: cell-based
T3 construct: host or cells: HEK293
Protocol: as §1

5-HT1B receptor = 5-HT1B receptor (Homo sapiens, UniProt P28222); assay: cAMP accumulation agonist assay at 5-HT1B; type: cell-based
Protocol: Disclosed compounds were tested for agonist activity at several serotonin receptor subtypes (5-HT2A, […], 5-HT2C, and 5-HT1A) using Ca^2+ flux functional assays and the 5-HT1B receptor using a cAMP accumulation assay, with the results summarized in Table 4. […] Potent agonist activity was also observed at the other serotonin receptors tested, although the selectivity profile among the receptors varied across compounds. […]. However, at the same time, the N-propyl compounds were more efficacious agonists at 5-HT2B than the corresponding N-methyl compounds. The selectivity of disclosed compounds for 5-HT2A over 5-HT2C and 5-HT1A was less predictable and varied widely across compounds, ranging from ˜1:6 to ˜20:1 (2C/2A) in the case of 5-HT2C and from ˜1:4 to >100:1 (1A/2A) in the case of 5-HT1A. […] An azetidinyl amide substituent tended to increase potency at 5-HT1A relative to 5-HT2A.
Functional Assay at 5-HT1B. Agonist activity at 5-HT1B was determined using a cAMP accumulation protocol at WuXi AppTec (Hong Kong) Limited according to their standard protocols. Briefly, stably transfected cells were plated in an OptiPlate-384 well plate, incubated at RT for 60 mins, and cAMP standard solution (800 nM, 10 μL) was added to the blank well. Then, 10 μL detection reagent was added to each well, the plate incubated for 60 mins at RT, and the plate read using EnVision.

[3] = Metabolic stability in human liver microsomes (HLM); type: in vitro ADME; conditions: both sexes, human, pH 7.4, 0.50 mg protein per mL
Excerpt: HLM Stability. Pooled HLM from adult male and female donors (Corning 452117) were used.

[4] = 1 nM [^3H]ketanserin, HEK293 stable cell line, read-out: 5-HT2A Receptor Ki (nM) ([^3H]ketanserin)
[5] = Ca^2+ flux, agonist, read-out: 5-HT2A EC50
[6] = Ca^2+ flux, agonist, read-out: 5-HT1A EC50
[7] = Ca^2+ flux, agonist, read-out: 5-HT2B EC50
[8] = cAMP, agonist, read-out: 5-HT1B EC50

5-HT1B receptor, sequence (P28222 whole entry): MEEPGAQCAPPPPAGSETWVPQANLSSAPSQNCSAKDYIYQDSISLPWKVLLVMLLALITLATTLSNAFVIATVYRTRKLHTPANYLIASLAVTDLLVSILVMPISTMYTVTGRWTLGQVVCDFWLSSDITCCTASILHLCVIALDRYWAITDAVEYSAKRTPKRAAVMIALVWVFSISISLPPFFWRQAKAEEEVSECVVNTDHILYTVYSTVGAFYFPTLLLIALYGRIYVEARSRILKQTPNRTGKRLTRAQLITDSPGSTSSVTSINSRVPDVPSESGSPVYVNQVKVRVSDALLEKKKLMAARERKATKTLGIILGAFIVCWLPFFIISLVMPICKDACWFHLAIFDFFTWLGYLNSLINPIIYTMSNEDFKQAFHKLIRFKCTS
T3 sequence (P41595 whole entry): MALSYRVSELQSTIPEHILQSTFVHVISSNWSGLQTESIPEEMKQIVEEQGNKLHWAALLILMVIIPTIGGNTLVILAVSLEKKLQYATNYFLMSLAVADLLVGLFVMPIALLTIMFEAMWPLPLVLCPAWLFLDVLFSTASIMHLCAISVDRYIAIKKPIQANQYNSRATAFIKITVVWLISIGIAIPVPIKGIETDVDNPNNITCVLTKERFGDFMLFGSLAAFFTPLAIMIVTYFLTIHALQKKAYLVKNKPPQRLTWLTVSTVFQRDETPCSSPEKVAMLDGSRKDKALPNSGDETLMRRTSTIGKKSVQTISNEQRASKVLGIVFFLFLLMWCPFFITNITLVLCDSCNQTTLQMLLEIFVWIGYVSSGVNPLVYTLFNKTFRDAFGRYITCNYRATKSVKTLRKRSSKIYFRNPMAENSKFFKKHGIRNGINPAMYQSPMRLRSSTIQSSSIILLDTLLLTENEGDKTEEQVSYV
T1 sequence (P28223 whole entry): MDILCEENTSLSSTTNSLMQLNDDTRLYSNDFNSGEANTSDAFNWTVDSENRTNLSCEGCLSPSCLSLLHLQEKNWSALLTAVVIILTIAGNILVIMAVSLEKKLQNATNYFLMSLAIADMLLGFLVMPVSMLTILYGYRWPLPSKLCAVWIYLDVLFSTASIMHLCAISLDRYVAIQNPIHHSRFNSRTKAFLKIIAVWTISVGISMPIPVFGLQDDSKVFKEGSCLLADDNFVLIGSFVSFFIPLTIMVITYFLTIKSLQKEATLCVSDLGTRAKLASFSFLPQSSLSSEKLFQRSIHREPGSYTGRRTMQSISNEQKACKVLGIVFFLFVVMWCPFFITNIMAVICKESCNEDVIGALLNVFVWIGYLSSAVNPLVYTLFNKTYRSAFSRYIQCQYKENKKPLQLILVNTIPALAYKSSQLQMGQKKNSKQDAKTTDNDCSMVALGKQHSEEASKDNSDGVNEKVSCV

SMILES | Ki (5-HT2A receptor [1]; [4]) [nM] | 5-HT2A % Act @ Max Dose (5-HT2A receptor [2]; Ca^2+ flux, agonist) [%] | EC50 (5-HT2A receptor [2]; [5]) [nM] | 5-HT1A % Act @ Max Dose (5-HT1A receptor; Ca^2+ flux, agonist) [%] | EC50 (5-HT1A receptor; [6]) [nM] | 5-HT2B % Act @ Max Dose (5-HT2B receptor; Ca^2+ flux, agonist) [%] | EC50 (5-HT2B receptor; [7]) [nM] | 5-HT1B % Act @ Max Dose (5-HT1B receptor; cAMP, agonist) [%] | EC50 (5-HT1B receptor; [8]) [nM] | half-life at 1 μM ([3]; pooled human liver microsomes) [min] | microsomal CLint at 1 μM ([3]; pooled human liver microsomes) [µL/min/mg] | other results
CC[C@@H](C)NC(=O)[C@@H]1C=C2c3cccc4[nH]cc(c34)C[C@H]2N(CCC(F)(F)F)C1 [Compound 40, (6aR,9R)—N—((R)-sec-butyl)-7-(3,3,3-trifluoropropyl)-4,6,6a,7,8,9-hexahydroindolo[4,3-fg]quinoline-9-carboxamide] | 37.7 | 45.12 | 169 | 22.27 | > 10000 | 8.46 | > 10000 | 62.14 | 8310 | 3.2 | 435 | selectivity for 5-HT2A compared to the other serotonin receptors tested (in words) (5-HT2A receptor [2]; functional agonist assays): highly selective
CCN(CC)C(=O)[C@@H]1C=C2c3cccc4[nH]c(Br)c(c34)C[C@H]2N(C)C1 [Compound 35, (6aR,9R)-5-bromo-N,N-diethyl-7-methyl-4,6,6a,7,8,9-hexahydroindolo[4,3-fg]quinoline-9-carboxamide] |  | 67.74 |  | −1.58 |  | −0.13 |  | 76.8 |  |  |  | Ki (5-HT2A receptor [1]): 0.73 nM; EC50 (5-HT2A receptor [2]): 66.4 nM; EC50 (5-HT1A receptor): > 3160 nM; EC50 (5-HT2B receptor): > 10000 nM; EC50 (5-HT1B receptor): 214 nM; half-life at 1 μM ([3]; microsomes): 24.2 min; microsomal CLint at 1 μM ([3]; microsomes): 57.4 µL/min/mg
CCN(CC)C(=O)[C@@H]1C=C2c3cccc4[nH]cc(c34)C[C@H]2N(CCF)C1 [Compound 39, (6aR,9R)—N,N-diethyl-7-(2-fluoroethyl)-4,6,6a,7,8,9-hexahydroindolo[4,3-fg]quinoline-9-carboxamide] | 4.54 | 95.52 | 16.2 | 91.21 | 239 | 85.46 | 137 | 99.00 | 1100 | 31.7 | 43.8 | 
C=CCN1C[C@H](C(=O)N2[C@@H](C)C[C@@H]2C)C=C2c3cccc4[nH]cc(c34)C[C@H]21 [Compound 27, ((6aR,9R)-7-allyl-4,6,6a,7,8,9-hexahydroindolo[4,3-fg]quinolin-9-yl)((2S,4S)-2,4-dimethylazetidin-1-yl)methanone] | 8.96 | 81.1 | 12 | 90.8 | 2.97 | 96.0 | 351 | 96.92 | 88.7 | 16.1 | 86.1 | 
CCN(CC)C(=O)[C@@H]1C=C2c3cccc4c3C(CN4)C[C@H]2N(C)C1 (mixture of isomers) [Compound 37, (6aR,9R)—N,N-diethyl-7-methyl-4,5,5a,6,6a,7,8,9-octahydroindolo[4,3-fg]quinoline-9-carboxamide] | 11.4 | 76.37 | 76.6 | 108.98 | 17.2 | 24.06 | 465 | 90.74 | 19.4 | > 145 | < 9.6 | 5-HT2A receptor binding affinity / potency (in words) (5-HT2A receptor [1]; radioligand binding): reduced in potency
CC[C@@H](C)NC(=O)[C@@H]1C=C2c3cccc4[nH]c(Br)c(c34)C[C@H]2N(C)C1 [Compound 43, (6aR,9R)-5-bromo-N—((R)-sec-butyl)-7-methyl-4,6,6a,7,8,9-hexahydroindolo[4,3-fg]quinoline-9-carboxamide] | 1.13 | 39.32 | 118 | 6.30 | > 10000 | 1.00 | > 10000 | 83.76 | 311 | 24.8 | 56 | 
CCCN1C[C@H](C(=O)N(CC)CC)C=C2c3cccc4[nH]c(Br)c(c34)C[C@H]21 [Compound 9, (6aR,9R)-5-bromo-N,N-diethyl-7-propyl-4,6,6a,7,8,9-hexahydroindolo[4,3-fg]quinoline-9-carboxamide] | 1.11 | 75.81 | 228 | 101.39 | 96.5 | 89.6 | 400 | 81.46 | 264 | 9.9 | 140 | 
CN1C[C@H](C(=O)N(CCF)CCF)C=C2c3cccc4[nH]cc(c34)C[C@H]21 [Compound 38, (6aR,9R)—N,N-bis(2-fluoroethyl)-7-methyl-4,6,6a,7,8,9-hexahydroindolo[4,3-fg]quinoline-9-carboxamide] | 0.84 | 93.39 | 11.8 | 90.5 | 3.45 | 28.13 | 22.1 | 94.72 | 4.65 | 64 | 21.6 | 
CCN(CC)C(=O)[C@@H]1C=C2c3cccc4[nH]c(Br)c(c34)C[C@H]2N(CCC(F)(F)F)C1 [Compound 42, (6aR,9R)-5-bromo-N,N-diethyl-7-(3,3,3-trifluoropropyl)-4,6,6a,7,8,9-hexahydroindolo[4,3-fg]quinoline-9-carboxamide] | 1.84 | 8.29 | > 1000 | 9.13 | > 10000 | 2.58 | > 10000 | 33.13 | > 10000 | 11.1 | 125 | agonist activity at serotonin receptors (in words) (5-HT2A receptor [2]; Ca^2+ flux / cAMP functional assays, receptors tested): no agonist activity
CCCN1C[C@H](C(=O)N2[C@@H](C)C[C@@H]2C)C=C2c3cccc4[nH]c(Br)c(c34)C[C@H]21 [Compound 47, ((6aR,9R)-5-bromo-7-propyl-4,6,6a,7,8,9-hexahydroindolo[4,3-fg]quinolin-9-yl)((2S,4S)-2,4-dimethylazetidin-1-yl)methanone] | 1.38 | 57.01 | 117 | 62.15 | 93.6 | 87.01 | 1440 | 76.22 | 4960 | 5.6 | 249 | 
